Assay results: patent publication US20140193827A1 (TEVA PHARMACEUTICAL INDUSTRIES, LTD., priority 2013, published 2014)

System: GA-primed murine splenocytes
Assay: ANOVA-based pattern identification method
Format: cell-based, mouse
Text: We sought to identify probes matching specific patterns of expression across experimental conditions using a technique that referred to as the ANOVA-based Pattern Identification Method.
To carry out the analysis in a general manner, we computed the 6 p-values required to do pairwise comparisons of all 4 conditions for all probes using the ANOVA1 function in MATLAB. We then identified sets of probes matching the desired pattern. In the example above, probes were identified as being only affected by PG if their 6 pairwise comparison pvalues matched the following pattern (pGA-PG<0.05, pPG-reference standard<0.05, pPG-Medium<0.05, pGAMedium>0.05, pGA-reference standard>0.05, preference standard-Medium>0.05).

[1] = DOWN IN GA AND REF ONLY, first line for this gene
[2] = DOWN IN GA AND REF ONLY, second line for this gene

## glatiramer acetate [GA]
DOWN IN GA AND REF ONLY
  AA536749 expression level: 8.75
  C5F3R expression level: 5.814
  CD33 expression level: 6.382
  CD63 expression level: 7.484
  CLEC4E expression level: 6.76
  CXCR4 expression level: 9.154
  GAS7 expression level: 6.685
  GPR97 expression level: 6.1434
  KLC4 expression level: 7.786
  LOC385923 expression level: 7.651
  LOC386268 expression level: 6.655
  LOC386288 expression level: 7.006
  LOC386360 expression level: 9.445
  TMEM38B expression level: 8.3
  average expression of 1100001G20RIK: 6.239
  average expression of 1110014N23RIK: 9.678
  average expression of 1200002N14RIK: 6.896
  average expression of 1300010F03R1K: 6.604
  average expression of 1300010F03RIK: 6.764
  average expression of 1700073E17RIK: 5.669
  average expression of 1810009N02RIK: 8.11
  average expression of 1810030N24RIK: 6.84
  average expression of 2010001M09RIK: 13.2
  average expression of 2310040G07RIK: 5.712
  average expression of 2310067B10RIK: 7.502
  average expression of 2310079N02RIK: 9.098
  average expression of 2510022D24RIK: 8.141
  average expression of 2610024M03RIK: 6.018
  average expression of 2610028H07RIK: 10.1
  average expression of 2810402K13RIK: 8.169
  average expression of 2810422O20RIK: 7.018
  average expression of 2900079J23RIK: 5.766
  average expression of 3110004L20RIK: 5.934
  average expression of 3110082D06RIK: 5.99
  average expression of 4930519F16RIK: 5.617
  average expression of 4930572J05RIK: 10.41
  average expression of 5031439G07RIK: 7.967
  average expression of 5330417C22RIK: 5.64
  average expression of 5830415F09RIK: 6.998
  average expression of 6230425C21RIK: 7.021
  average expression of 6430511F03: 6.247
  average expression of 6430526N21RIK: 7.232
  average expression of 6720480F11RIK: 5.641
  average expression of 6720486H14RIK: 5.584
  average expression of 9030025P20RIK: 8.593
  average expression of 9330152L17: 5.75
  average expression of A430043M19RIK: 6.108
  average expression of A630038P11RIK: 5.552
  average expression of A730017D01RIK: 6.519
  average expression of A930014P08RIK: 5.554
  average expression of ABCC4: 7.757
  average expression of ACBD4: 9.154
  average expression of ACP2: 6.811
  average expression of ACTR3B: 6.47
  average expression of ADAM11: 5.629
  average expression of AGAP1: 5.989
  average expression of ANKRD13A: 10.24
  average expression of APP: 6.949
  average expression of ARHGAP22: 6.192
  average expression of ATP6V1B2: 10.4
  average expression of AW011738: 6.2494
  average expression of B130002B06RIK: 5.7347
  average expression of B930048N13RIK: 5.895
  average expression of B930049N04RIK: 5.592
  average expression of B930097H17RIK: 5.792
  average expression of BC014795: 8.05
  average expression of BC065397: 6.46
  average expression of BC066107: 6.578
  average expression of BMP3: 5.623
  average expression of BRD2: 11.26
  average expression of C330019G07RIK: 6.738
  average expression of C430003P19RIK: 9.571
  average expression of CAGE1: 5.862
  average expression of CASP1: 11.51
  average expression of CBLC: 5.866
  average expression of CD151: 8.029
  average expression of CENTG3: 6.784
  average expression of CEPT1: 10.22
  average expression of CFB: 6.244
  average expression of CLEC4A1: 6.263
  average expression of CLEC5A: 5.873
  average expression of CNTNAP3: 5.796
  average expression of COgeneric: 8.105
  average expression of CREG1: 6.616
  average expression of CRTAC1: 5.925
  average expression of CTSL: 5.744
  average expression of D030051N19RIK: 8.287
  average expression of D030072B18RIK: 5.56
  average expression of DGKQ: 6.895
  average expression of DLG3: 7.023
  average expression of DNMT3L: 6.042
  average expression of DUSP6: 5.768
  average expression of E330023P07RIK: 5.77
  average expression of EG434402: 9.171
  average expression of EG633640: 6.136
  average expression of ELL: 9.635
  average expression of EPB4.1L3: 5.896
  average expression of EPN3: 5.711
  average expression of ERCC4: 8.15
  average expression of FA2H: 5.977
  average expression of FBXL20: 7.805
  average expression of FCMD: 6.473
  average expression of FOS: 6.875
  average expression of FRMPD1: 5.584
  average expression of GAA: 8.021
  average expression of GALGT1: 7.448
  average expression of GALNT10: 8.096
  average expression of GDPD1: 6.392
  average expression of GM498: 5.674
  average expression of GPS2: 9.303
  average expression of GSTM2: 5.945
  average expression of GTPBP1: 9.185
  average expression of HMOX1: 6.561
  average expression of HRSP12: 8.037
  average expression of IGK-V33: 9.992
  average expression of IGLC2_J00595—IG_LAMBDA—CONSTANT_2_14: 13.7
  average expression of IRAK3: 9.019
  average expression of IRF3: 7.749
  average expression of IVD: 9.212
  average expression of KCNC4: 5.832
  average expression of KRT39: 5.551
  average expression of KRTAP5-4: 5.651
  average expression of LOC193563: 5.759
  average expression of LOC238836: 13.84
  average expression of LOC243025: 6.623
  average expression of LOC327767: 5.978
  average expression of LOC382163: 6.742
  average expression of LOC383099: 13.14
  average expression of LOC386085: 6.21
  average expression of LOC386117: 7.052
  average expression of LOC636818: 5.986
  average expression of LOC100046003: 8.735
  average expression of LYNX1: 8.531
  average expression of MBD1: 9.009
  average expression of MBL1: 5.552
  average expression of MKL1: 6.303
  average expression of MREG: 8.88
  average expression of MYO7A: 6.668
  average expression of NEURL: 5.956
  average expression of NISCH: 7.088
  average expression of NOS3: 5.804
  average expression of NTE: 8.3088
  average expression of OLFR150: 5.626
  average expression of OLFR516: 5.76
  average expression of OLFR586: 5.541
  average expression of OPHN1: 5.71
  average expression of ORF19: 6.879
  average expression of P2RX4: 7.358
  average expression of PAPSS2: 6.662
  average expression of PARD3B: 5.905
  average expression of PCBP2: 12.63
  average expression of PCDH19: 5.63
  average expression of PEO1: 7.1356
  average expression of PI4KB: 9.544
  average expression of PIK3R6: 6.343
  average expression of PLEKHB2: 9.006
  average expression of PREP: 7.918
  average expression of PRKCZ: 6.967
  average expression of PROM: 5.87
  average expression of RARG: 6.121
  average expression of RASGRF1: 5.764
  average expression of RBM15: 7.902
  average expression of RCCD1: 8.174
  average expression of REN1: 5.599
  average expression of RFFL: 7.211
  average expression of RHBDD1: 7.627
  average expression of RING1: 8.656
  average expression of RNF10: 11.45
  average expression of RNF123: 7.4966
  average expression of S031414D18RIK: 8.467
  average expression of SCL0004023.1_57: 5.99
  average expression of SEC16A: 9.968
  average expression of SETD1A: 8.956
  average expression of SFXN3: 6.025
  average expression of SGPL1: 7.481
  average expression of SHC1: 11.03
  average expression of SHKBP1: 8.287
  average expression of SLC9A4: 5.715
  average expression of SLC25A42: 6.212
  average expression of SLC35E4: 5.806
  average expression of SLCO6C1: 5.618
  average expression of SMARCE1: 9.332
  average expression of SNX15: 9.294
  average expression of SNX33: 6.987
  average expression of SOLH: 7.952
  average expression of SP2: 6.867
  average expression of SRGAP2: 7.797
  average expression of SRGAP3: 6.074
  average expression of STARD3: 8.435
  average expression of TBC1D2: 6.839
  average expression of TBC1D25: 7.965
  average expression of TEAD4: 5.994
  average expression of TGFBI: 6.19
  average expression of TGIF1: 8.224
  average expression of TIMM8A2: 5.837
  average expression of TLR13: 6.019
  average expression of TMEM56: 5.549
  average expression of TMEM63A: 7.667
  average expression of TMUB1: 8.55
  average expression of TNS4: 5.759
  average expression of TRP53: 9.698
  average expression of TYROBP: 7.408
  average expression of USP11: 6.423
  average expression of USP22: 9.057
  average expression of USP54: 6.972
  average expression of WWP2: 8.833
  average expression of ZC3H12A: 8.215
  average expression of ZFP36L1: 13.82
  average expression of ZFP317: 7.218
  average expression of ZFP704: 5.829
  average expression of ZFPL1: 7.39
  genericLS expression level: 6.212
[1]
  average expression of CLEC4B1: 5.984
  average expression of LOC100048105: 13.17
  average expression of SLC11A1: 6.429
[2]
  average expression of CLEC4B1: 5.725
  average expression of LOC100048105: 13.47
  average expression of SLC11A1: 6.896
DOWN IN GA AND REF ONLY, second line for this gene (first at r2479)
  average expression of GAS7: 6.6505
DOWN IN generic ONLY
  29D0003A17RIK expression level: 6.032
  1700081L16RIK expression level: 5.561
  2210003I03RIK expression level: 5.693
  3110052M02RIK expression level: 5.651
  3110079O15RIK expression level: 5.642
  4833419KD8RIK expression level: 5.588
  4921522P10RIK expression level: 5.793
  4930543E05RIK expression level: 5.681
  4930571C24RIK expression level: 5.414
  5730599A22RIK expression level: 5.675
  6430527G18RIK expression level: 5.618
  6720487G11RIK expression level: 5.949
  A230066D03RIK expression level: 5.913
  A530088H08RIK expression level: 5.838
  A830021M18 expression level: 5.662
  ADAMTSL3 expression level: 5.806
  B230323D24RIK expression level: 5.81
  BRPF1 expression level: 8.958
  BTF3L4 expression level: 5.682
  C430020E23RIK expression level: 5.906
  CNTN2 expression level: 5.729
  CORO1B expression level: 11.36
  CRAT expression level: 5.921
  CREBZF expression level: 5.66
  D130050A01RIK expression level: 5.633
  D130061E05RIK expression level: 5.723
  D130063P19RIK expression level: 5.768
  D530031C13RIK expression level: 5.728
  DLG1 expression level: 5.734
  EFCAB1 expression level: 5.72
  EG634762 expression level: 5.772
  ELMO2 expression level: 5.907
  ENSMUSG00000071316 expression level: 5.766
  EZH2 expression level: 5.625
